# Biological target: c-kit mutant D816V (Homo sapiens (Human), UniProt P10721, D816V/DEL694-753)
# Experiment: c-Kit mutant D816V biochemical assay (AlphaScreen kinase activity)
# Summary of the method: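 Recombinant His-tagged c-Kit D816V kinase domain (residues 551-934, insert 694-753 deleted, E. coli-expressed) phosphorylating 30 nM biotin-(E4Y)10 with 10 μM ATP, HEPES pH 7.2, Mg/Mn, 5% DMSO; 30 min, room temperature. Phosphorylation detected by AlphaScreen (streptavidin donor/PY30 acceptor beads); IC50 from 8-point 1:3 series.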
# c-kit mutant D816V, sequence (P10721 other isoform, or with tags, fused parts or gaps D816V/del 694-753): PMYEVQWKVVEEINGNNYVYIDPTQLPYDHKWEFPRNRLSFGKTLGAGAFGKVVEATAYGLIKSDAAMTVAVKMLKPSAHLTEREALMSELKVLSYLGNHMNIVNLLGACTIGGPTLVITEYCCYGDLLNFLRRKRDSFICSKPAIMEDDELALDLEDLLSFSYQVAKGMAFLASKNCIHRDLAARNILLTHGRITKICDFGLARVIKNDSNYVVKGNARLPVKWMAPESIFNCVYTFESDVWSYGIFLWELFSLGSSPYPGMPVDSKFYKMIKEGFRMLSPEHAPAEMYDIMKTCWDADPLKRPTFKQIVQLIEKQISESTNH
row,Compound,IC50
1,"COc1cc(-c2cc3c(N4CCC(c5nc(C)c(-c6cccc(OC(F)(F)F)c6)[nH]5)CC4)ncnc3[nH]2)ccn1 [P-3014, 6-(2-methoxy-4-pyridyl)-4-[4-[4-methyl-5-[3-(trifluoromethoxy)phenyl]-1H-imidazol-2-yl]-1-piperidyl]-7H-pyrrolo[2,3-d]pyrimidine]",0.0001 to 1 µM
2,"COc1ccc(-c2[nH]c(C3CCN(c4ncnc5[nH]c(-c6ccc(C#N)cc6)cc45)CC3)nc2C)cc1 [P-3015, 4-[4-[4-[5-(4-methoxyphenyl)-4-methyl-1H-imidazol-2-yl]-1-piperidyl]-7H-pyrrolo[2,3-d]pyrimidin-6-yl]benzonitrile]",0.0001 to 1 µM
3,"Cc1nc(C2CCN(c3ncnc4[nH]c(-c5ccc(C#N)cc5)cc34)CC2)[nH]c1-c1cccc(F)c1 [P-3016, 4-[4-[4-[5-(3-fluorophenyl)-4-methyl-1H-imidazol-2-yl]-1-piperidyl]-7H-pyrrolo[2,3-d]pyrimidin-6-yl]benzonitrile]",0.0001 to 1 µM
4,"COc1ccc(-c2[nH]c(C3CCN(c4ncnc5[nH]c(-c6ccnc(OC)c6)cc45)CC3)nc2C)cc1 [P-3017, 4-[4-[5-(4-methoxyphenyl)-4-methyl-1H-imidazol-2-yl]-1-piperidyl]-6-(2-methoxy-4-pyridyl)-7H-pyrrolo[2,3-d]pyrimidine]",0.0001 to 1 µM
5,"COc1ccc(-c2[nH]c(C3CCN(c4ncnc5[nH]c(-c6ccc(C#N)cc6)cc45)CC3)nc2C)cc1F [P-3018, 4-[4-[4-[5-(3-fluoro-4-methoxy-phenyl)-4-methyl-1H-imidazol-2-yl]-1-piperidyl]-7H-pyrrolo[2,3-d]pyrimidin-6-yl]benzonitrile]",0.0001 to 1 µM
6,"CCOc1ccc(-c2[nH]c(C3(C)CCN(c4ncnc5[nH]c(-c6ccc(OC)nc6)cc45)CC3)nc2C)cc1 [P-3171, 4-[4-[5-(4-ethoxyphenyl)-4-methyl-1H-imidazol-2-yl]-4-methyl-1-piperidyl]-6-(6-methoxy-3-pyridyl)-7H-pyrrolo[2,3-d]pyrimidine]",0.0001 to 1 µM
7,"COc1ccc(-c2[nH]c(C3(C)CCN(c4ncnc5[nH]c(-c6ccc(C#N)cc6)cc45)CC3)nc2C)cn1 [P-3172, 4-[4-[4-[5-(6-methoxy-3-pyridyl)-4-methyl-1H-imidazol-2-yl]-4-methyl-1-piperidyl]-7H-pyrrolo[2,3-d]pyrimidin-6-yl]benzonitrile]",0.0001 to 1 µM
8,"COc1ncc(-c2[nH]c(C3CCN(c4ncnc5[nH]c(-c6ccc(C#N)cc6)cc45)CC3)nc2C)cc1F [P-3173, 4-[4-[4-[5-(5-fluoro-6-methoxy-3-pyridyl)-4-methyl-1H-imidazol-2-yl]-1-piperidyl]-7H-pyrrolo[2,3-d]pyrimidin-6-yl]benzonitrile]",0.0001 to 1 µM
9,"Cc1nc(C2(C)CCN(c3ncnc4[nH]c(-c5cnn(C(F)F)c5)cc34)CC2)[nH]c1-c1ccc(Cl)cc1 [P-3175, 4-[4-[5-(4-chlorophenyl)-4-methyl-1H-imidazol-2-yl]-4-methyl-1-piperidyl]-6-[1-(difluoromethyl)pyrazol-4-yl]-7H-pyrrolo[2,3-d]pyrimidine]",0.0001 to 1 µM
10,"COc1ccc(-c2cc3c(N4CCC(C)(c5nc(C)c(-c6ccc(Cl)cc6)[nH]5)CC4)ncnc3[nH]2)cn1 [P-3176, 4-[4-[5-(4-chlorophenyl)-4-methyl-1H-imidazol-2-yl]-4-methyl-1-piperidyl]-6-(6-methoxy-3-pyridyl)-7H-pyrrolo[2,3-d]pyrimidine]",0.0001 to 1 µM
11,"Cc1nc(C2(C)CCN(c3ncnc4[nH]c(-c5ccc(C#N)cc5)cc34)CC2)[nH]c1-c1ccc(C(F)(F)F)cc1 [P-3177, 4-[4-[4-methyl-4-[4-methyl-5-[4-(trifluoromethyl)phenyl]-1H-imidazol-2-yl]-1-piperidyl]-7H-pyrrolo[2,3-d]pyrimidin-6-yl]benzonitrile]",0.0001 to 1 µM
12,"COc1ccc(-c2cc3c(N4CCC(C)(c5nc(C)c(-c6ccc(C(F)(F)F)cc6)[nH]5)CC4)ncnc3[nH]2)cn1 [P-3178, 6-(6-methoxy-3-pyridyl)-4-[4-methyl-4-[4-methyl-5-[4-(trifluoromethyl)phenyl]-1H-imidazol-2-yl]-1-piperidyl]-7H-pyrrolo[2,3-d]pyrimidine]",0.0001 to 1 µM
13,"Cc1nc(C2(C)CCN(c3ncnc4[nH]c(-c5cnn(C(F)F)c5)cc34)CC2)[nH]c1-c1ccc(C(F)(F)F)cc1 [P-3179, 6-[1-(difluoromethyl)pyrazol-4-yl]-4-[4-methyl-4-[4-methyl-5-[4-(trifluoromethyl)phenyl]-1H-imidazol-2-yl]-1-piperidyl]-7H-pyrrolo[2,3-d]pyrimidine]",0.0001 to 1 µM
14,"Cc1nc(C2(C)CCN(c3ncnc4[nH]c(-c5ccc(C#N)cc5)cc34)CC2)[nH]c1-c1ccc(Cl)cc1 [P-3180, 4-[4-[4-[5-(4-chlorophenyl)-4-methyl-1H-imidazol-2-yl]-4-methyl-1-piperidyl]-7H-pyrrolo[2,3-d]pyrimidin-6-yl]benzonitrile]",0.0001 to 1 µM
15,"COc1ncc(-c2[nH]c(C3(C)CCN(c4ncnc5[nH]c(-c6ccc(C#N)cc6)cc45)CC3)nc2C)cc1F [P-3181, 4-[4-[4-[5-(5-fluoro-6-methoxy-3-pyridyl)-4-methyl-1H-imidazol-2-yl]-4-methyl-1-piperidyl]-7H-pyrrolo[2,3-d]pyrimidin-6-yl]benzonitrile]",0.0001 to 1 µM
16,"COc1ccc(-c2[nH]c(C3(C)CCN(c4ncnc5[nH]c(-c6cnn(C(F)F)c6)cc45)CC3)nc2C)cn1 [P-3182, 6-[1-(difluoromethyl)pyrazol-4-yl]-4-[4-[5-(6-methoxy-3-pyridyl)-4-methyl-1H-imidazol-2-yl]-4-methyl-1-piperidyl]-7H-pyrrolo[2,3-d]pyrimidine]",0.0001 to 1 µM
17,"COc1ccc(-c2[nH]c(C3(C)CCN(c4ncnc5[nH]c(C)cc45)CC3)nc2C)cc1F [P-3183, 4-[4-[5-(3-fluoro-4-methoxy-phenyl)-4-methyl-1H-imidazol-2-yl]-4-methyl-1-piperidyl]-6-methyl-7H-pyrrolo[2,3-d]pyrimidine]",0.0001 to 1 µM
18,"Cc1cc2c(N3CCC(C)(c4nc(C)c(-c5ccc(C(F)F)cc5)[nH]4)CC3)ncnc2[nH]1 [P-3184, 4-[4-[5-[4-(difluoromethyl)phenyl]-4-methyl-1H-imidazol-2-yl]-4-methyl-1-piperidyl]-6-methyl-7H-pyrrolo[2,3-d]pyrimidine]",0.0001 to 1 µM
19,"COc1ncc(-c2nc(C3(C)CCN(c4ncnc5[nH]c(C)cc45)CC3)[nH]c2C)cc1F [P-3185, 4-[4-[4-(5-fluoro-6-methoxy-3-pyridyl)-5-methyl-1H-imidazol-2-yl]-4-methyl-1-piperidyl]-6-methyl-7H-pyrrolo[2,3-d]pyrimidine]",0.0001 to 1 µM
20,"COc1ccc(-c2nc(C3(C)CCN(c4ncnc5[nH]c(C)cc45)CC3)[nH]c2C)cn1 [P-3186, 4-[4-[4-(6-methoxy-3-pyridyl)-5-methyl-1H-imidazol-2-yl]-4-methyl-1-piperidyl]-6-methyl-7H-pyrrolo[2,3-d]pyrimidine]",0.0001 to 1 µM
21,"COc1ccc(-c2[nH]c(C3(C)CCN(c4ncnc5[nH]c(-c6cnn(C(F)F)c6)cc45)CC3)nc2C)cc1F [P-3187, 6-[1-(difluoromethyl)pyrazol-4-yl]-4-[4-[5-(3-fluoro-4-methoxy-phenyl)-4-methyl-1H-imidazol-2-yl]-4-methyl-1-piperidyl]-7H-pyrrolo[2,3-d]pyrimidine]",0.0001 to 1 µM
22,"COc1ccc(-c2cc3c(N4CCC(C)(c5nc(C)c(-c6ccc(OC)c(F)c6)[nH]5)CC4)ncnc3[nH]2)cn1 [P-3188, 4-[4-[5-(3-fluoro-4-methoxy-phenyl)-4-methyl-1H-imidazol-2-yl]-4-methyl-1-piperidyl]-6-(6-methoxy-3-pyridyl)-7H-pyrrolo[2,3-d]pyrimidine]",0.0001 to 1 µM
23,"Cc1nc(C2(C)CCN(c3ncnc4[nH]c(-c5cnn(C(F)F)c5)cc34)CC2)[nH]c1-c1ccc(C(F)F)cc1 [P-3189, 4-[4-[5-[4-(difluoromethyl)phenyl]-4-methyl-1H-imidazol-2-yl]-4-methyl-1-piperidyl]-6-[1-(difluoromethyl)pyrazol-4-yl]-7H-pyrrolo[2,3-d]pyrimidine]",0.0001 to 1 µM
24,"COc1ccc(-c2cc3c(N4CCC(C)(c5nc(C)c(-c6ccc(C(F)F)cc6)[nH]5)CC4)ncnc3[nH]2)cn1 [P-3190, 4-[4-[5-[4-(difluoromethyl)phenyl]-4-methyl-1H-imidazol-2-yl]-4-methyl-1-piperidyl]-6-(6-methoxy-3-pyridyl)-7H-pyrrolo[2,3-d]pyrimidine]",0.0001 to 1 µM
25,"Cc1cc2c(N3CCC(C)(c4nc(C)c(-c5cccc(OC(F)F)c5)[nH]4)CC3)ncnc2[nH]1 [P-3191, 4-[4-[5-[3-(difluoromethoxy)phenyl]-4-methyl-1H-imidazol-2-yl]-4-methyl-1-piperidyl]-6-methyl-7H-pyrrolo[2,3-d]pyrimidine]",0.0001 to 1 µM
26,"Cc1nc(C2(C)CCN(c3ncnc4[nH]c(-c5cnn(C(F)F)c5)cc34)CC2)[nH]c1-c1cccc(OC(F)F)c1 [P-3192, 4-[4-[5-[3-(difluoromethoxy)phenyl]-4-methyl-1H-imidazol-2-yl]-4-methyl-1-piperidyl]-6-[1-(difluoromethyl)pyrazol-4-yl]-7H-pyrrolo[2,3-d]pyrimidine]",0.0001 to 1 µM
27,"COc1ccc(-c2cc3c(N4CCC(C)(c5nc(C)c(-c6cccc(OC(F)F)c6)[nH]5)CC4)ncnc3[nH]2)cn1 [P-3193, 4-[4-[5-[3-(difluoromethoxy)phenyl]-4-methyl-1H-imidazol-2-yl]-4-methyl-1-piperidyl]-6-(6-methoxy-3-pyridyl)-7H-pyrrolo[2,3-d]pyrimidine]",0.0001 to 1 µM
28,"Cc1nc(C2(C)CCN(c3ncnc4[nH]c(-c5ccc(C#N)cc5)cc34)CC2)[nH]c1-c1cccc(OC(F)F)c1 [P-3194, 4-[4-[4-[5-[3-(difluoromethoxy)phenyl]-4-methyl-1H-imidazol-2-yl]-4-methyl-1-piperidyl]-7H-pyrrolo[2,3-d]pyrimidin-6-yl]benzonitrile]",0.0001 to 1 µM
29,"Cc1nc(C2(C)CCN(c3ncnc4[nH]c(-c5ccc(C#N)cc5)cc34)CC2)[nH]c1-c1ccc(OC(F)F)cc1 [P-3195, 4-[4-[4-[5-[4-(difluoromethoxy)phenyl]-4-methyl-1H-imidazol-2-yl]-4-methyl-1-piperidyl]-7H-pyrrolo[2,3-d]pyrimidin-6-yl]benzonitrile]",0.0001 to 1 µM
